pIC50: −log10 of the molar value.

The test has as its system A. baumannii strain ATCC17978. Kind of test: 50% growth inhibitory concentration (IC50) determination, Iso-Sensitest broth. The class given is cell-based. The note with it: Acinetobacter baumannii; A. baumannii ATCC17978; Iso-Sensitest medium; OD 600 nm over 16 h; read-out: IC50 ATCC17978. The protocol: The in vitro antimicrobial activity of the compounds was alternatively determined according to the following procedure:
The assay used a 10-points Iso-Sensitest broth medium to measure quantitatively the in vitro activity of the compounds against A. baumannii ATCC 17978.
Stock compounds in DMSO were serially twofold diluted (e.g. range from 50 to 0.097 μM final concentration) in 384 wells microtiter plates and inoculated with 49 μl the bacterial suspension in Iso-Sensitest medium to have a final cell concentration of ˜5×10^(5) CFU/ml in a final volume/well of 50 ul/well. Microtiter plates were incubated at 35±2° C.
Bacterial cell growth was determined with the measurement of optical density at λ=600 nm each 20 minutes over a time course of 16 h.
Growth inhibition was calculated during the logarithmic growth of the bacterial cells with determination of the concentration inhibiting 50% (IC50) and 90% (IC90) of the growth.
Tables 3, 4 and 5 provide the 50% growth inhibitory concentrations (IC50) in micromoles per liter of the compounds of present invention obtained against the A. baumannii strain ATCC17978.
Turning to `CN1C(=O)[C@H](CCCCN)NC(=O)[C@H](CCCN)NCc2ccccc2Sc2c(Cl)cc(Br)cc2CNC(=O)[C@@H]1Cc1c[nH]c2ccccc12` [Example 151, (12S,15S,18S)-15-(4-Amino-butyl)-18-(3-amino-propyl)-6-bromo-4-chloro-12-(1H-indol-3-ylmethyl)-13-methyl-2-thia-10,13,16,19-tetraaza-tricyclo[19.4.0.0*3,8*]pentacosa-1(25),3,5,7,21,23-hexaene-11,14,17-trione], the pIC50 (commonly the IC50 on a negative log10 scale, so that one unit is a factor of ten) is 6.70.

`CN1C(=O)[C@H](CCCCN)NC(=O)[C@H](CCCN)NCc2ccccc2Sc2c(Cl)ncc(Cl)c2CNC(=O)[C@@H]1Cc1c[nH]c2ccccc12` [Example 152]: the negative-log IC50 (pIC50) is greater than 6.41. Regarding `CN1C(=O)[C@H](CCCCN)NC(=O)[C@H](CCCN)NCc2ccccc2Sc2cnc(Cl)cc2CNC(=O)[C@@H]1Cc1c[nH]c2ccccc12` [Example 153], the negative-log IC50 (pIC50) is greater than 6.41. With `CN1C(=O)[C@H](CCCCN)NC(=O)[C@H](CCC(N)=O)NCc2ccccc2Sc2c(cc(-c3ccccc3)cc2C(F)(F)F)CNC(=O)[C@@H]1Cc1c[nH]c2ccccc12` [Example 155, 3-[(11S,14S,17S)-14-(4-Amino-butyl)-17-(1H-indol-3-ylmethyl)-16-methyl-12,15,18-trioxo-23-phenyl-25-trifluoromethyl-2-thia-10,13,16,19-tetraaza-tricyclo[19.4.0.0*3,8*]pentacosa-1(25),3,5,7,21,23-hexaen-11-yl]-propionamide] the figure was 5.57; with `CN1C(=O)[C@H](CCCCN)NC(=O)[C@H](CCCN)NCc2ccccc2Sc2c(Cl)cncc2CNC(=O)[C@@H]1Cc1c[nH]c2ccccc12` [Example 158], greater than 6.41; with `CN1C(=O)[C@H](CCCCN)NC(=O)[C@H](CCCN)NCc2cccnc2Sc2cnc(Cl)cc2CNC(=O)[C@@H]1Cc1c[nH]c2ccccc12` [Example 159, (7S,10S,13S)— 13-((1H-Indol-3-yl)methyl)-10-(4-aminobutyl)-7-(3-aminopropyl)-18-chloro-12-methyl-6,7,9,10,12,13,15,16-octahydrodipyrido[2,3-b:4′,3′-p][1,5,8,11,14]thiatetraazacycloheptadecine-8,11,14(5H)-trione], greater than 6.41. Take `CN1C(=O)[C@H](CCC(N)=O)NC(=O)[C@H](CCCN)NCc2ccccc2Sc2c(cc(-c3ccccc3)cc2C(F)(F)F)CNC(=O)[C@@H]1Cc1c[nH]c2ccccc12` [Example 161, 3-[(11S,14S,17S)-11-(3-Amino-propyl)-17-(1H-indol-3-ylmethyl)-16-methyl-12,15,18-trioxo-23-phenyl-25-trifluoromethyl-2-thia-10,13,16,19-tetraaza-tricyclo[19.4.0.0*3,8*]pentacosa-1(25),3,5,7,21,23-hexaen-14-yl]-propionamide]: the negative logarithm of the IC50 (pIC50) is 5.17. For the compound `CN1C(=O)[C@H](CCCCN)NC(=O)[C@H](CCCN)NCc2ccccc2Sc2c(ccc(Br)c2Cl)CNC(=O)[C@@H]1Cc1c[nH]c2ccccc12` [Example 168, (12S,15S,18S)-15-(4-Amino-butyl)-18-(3-amino-propyl)-5-bromo-4-chloro-12-(1H-indol-3-ylmethyl)-13-methyl-2-thia-10,13,16,19-tetraaza-tricyclo[19.4.0.0*3,8*]pentacosa-1(25),3,5,7,21,23-hexaene-11,14,17-trione], the pIC50 is greater than 6.40. Take `CN1C(=O)[C@H](CCCCN)NC(=O)[C@H](CCCN)NCc2ccccc2Sc2c(ccc(-c3ccccc3)c2Cl)CNC(=O)[C@@H]1Cc1c[nH]c2ccccc12` [Example 176, (12S,15S,18S)-15-(4-Amino-butyl)-18-(3-amino-propyl)-4-chloro-12-(1H-indol-3-ylmethyl)-13-methyl-5-phenyl-2-thia-10,13,16,19-tetraaza-tricyclo[19.4.0.0*3,8*]pentacosa-1(25),3,5,7,21,23-hexaene-11,14,17-trione]: the negative logarithm of the IC50 (pIC50) is 5.29. Consider `CN1C(=O)[C@H](CCCCN)NC(=O)[C@H](CCCN)NCc2ccccc2Sc2c(-c3cccnc3)ncc(Cl)c2CNC(=O)[C@@H]1Cc1c[nH]c2ccccc12` [Example 194], for which the pIC50 is 5.48.

Values taken from patent US10030047B2 (Hoffmann-La Roche Inc., priority 2015, dated 2018).
